Test results reported in BindingDB's records for doi:10.1016/j.bmcl.2009.08.014 (Wuxi Pharmatech, 2009).

Assay: Antagonist activity at CXCR2 expressed in CHO cells assessed as inhibition of IL-8-induced chemotaxis

Compound	IC50
CCN(Nc1c(Nc2cccc(C(=O)N(C)C)c2O)c(=O)c1=O)C(=O)c1ccc(F)cc1 [3-(2-(2-ethyl-2-(4-fluorobenzoyl)hydrazinyl)-3,4-dioxocyclobut-1-enylamino)-2-hydroxy-N,N-dimethylbenzamide]	840 nM
CCN(CC)Nc1c(Nc2cccc(C(=O)N(C)C)c2O)c(=O)c1=O [3-(2-(2,2-diethylhydrazinyl)-3,4-dioxocyclobut-1-enylamino)-2-hydroxy-N,N-dimethylbenzamide]	46 nM
CCN(Cc1ccc(F)cc1)Nc1c(Nc2cccc(C(=O)N(C)C)c2O)c(=O)c1=O [3-(2-(2-ethyl-2-(4-fluorobenzyl)hydrazinyl)-3,4-dioxocyclobut-1-enylamino)-2-hydroxy-N,N-dimethylbenzamide]	6340 nM
CCN(Nc1c(Nc2cccc(C(=O)N(C)C)c2O)c(=O)c1=O)C(C)=O [3-(2-(2-acetyl-2-ethylhydrazinyl)-3,4-dioxocyclobut-1-enylamino)-2-hydroxy-N,N-dimethylbenzamide]	1250 nM

The next lines start with the values.

IC50	Compound
54 nM	CCN(Nc1c(Nc2cccc(C(=O)N(C)C)c2O)c(=O)c1=O)c1ccccc1 [3-(2-(2-ethyl-2-phenylhydrazinyl)-3,4-dioxocyclobut-1-enylamino)-2-hydroxy-N,N-dimethylbenzamide]
840 nM	CCN(Nc1c(Nc2cccc(C(=O)N(C)C)c2O)c(=O)c1=O)c1ccc(F)cc1 [3-(2-(2-ethyl-2-(4-fluorophenyl)hydrazinyl)-3,4-dioxocyclobut-1-enylamino)-2-hydroxy-N,N-dimethylbenzamide]
75 nM	CCN(Nc1c(Nc2cccc(C(=O)N(C)C)c2O)c(=O)c1=O)c1ccccn1 [3-(2-(2-ethyl-2-(pyridin-2-yl)hydrazinyl)-3,4-dioxocyclobut-1-enylamino)-2-hydroxy-N,N-dimethylbenzamide]
100 nM	CCN(Nc1c(Nc2cccc(C(=O)N(C)C)c2O)c(=O)c1=O)c1ccc(OC)cc1 [3-(2-(2-ethyl-2-(4-methoxyphenyl)hydrazinyl)-3,4-dioxocyclobut-1-enylamino)-2-hydroxy-N,N-dimethylbenzamide]
